Structures are written as SMILES. Entries after “also recorded” stand apart in the source; their conditions may differ.

For one data set, the target named is T1, holo-CRBP1 (Homo sapiens, UniProt P09455).
T1 construct: made in house
T1 sequence (P09455 1-135): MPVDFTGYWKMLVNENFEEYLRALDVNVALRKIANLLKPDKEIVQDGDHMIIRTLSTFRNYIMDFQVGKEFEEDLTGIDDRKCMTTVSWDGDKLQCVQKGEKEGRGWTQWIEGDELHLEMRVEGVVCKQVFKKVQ
Description: High-throughput screening for CRBP1 ligands. The settings on record: 986 compounds at 5 μM, 1 μM holo-CRBP1. Type of data set: binding. On the procedure:
The principle of the fluorescence binding assays described above was adapted for the HTS in a 96-well plate format. Each well contained 0.2 mL of 20 mM Tris/HCl, pH 7.4 and 1 μM of holo-CRBP1. Tested compounds from two independent libraries (Bioactive Lipid I Screening Library form Cayman Chemicals and Screen-Well Bioactive Lipid Library from Enzo Life Science, total of 986 chemicals) were delivered in dimethyl sulfoxide (DMSO) to the final concentration of 5 μM. After 15 min of incubation at room temperature (RT), the samples were excited at 285 nm, and the fluorescence signals from CRBP1 (at 350 nm) and atROL (at 480 nm) were recorded in a Flexstation3 microplate reader (Molecular Devices). Changes in the fluorescence emissions were evaluated by calculating ratio between signals at 480 and 350 nm. To eliminate false positives, only those wells in which the increase in protein fluorescence was accompanied by proportional decline in the fluorescence of atROL were considered as potential hits.
To search for compounds interacting with CRBP1, we developed an HTS strategy that minimalized experimental bias associated with investigating the binding of hydrophobic ligands to a protein specialized for interaction with small lipophilic molecules. It is based on the fluorescence properties of CRBP1 in complex with its natural ligand, atROL. […]

The target in another data set is cannabinoid receptor 1 (Homo sapiens, UniProt P21554). Conditions: cited from earlier work.
In a further data set the test system is Balb/cJ mice. Briefly: Electroretinography (ERG) after photobleach. Type of data set: in vivo. Conditions: 30 mg kg^−1; scotopic ERG 4 h after flash of light. On the procedure:
Before the ERG recording, dark-adapted Balb/cJ mice were anesthetized with 20 mg mL^−1 ketamine and 1.75 mg mL^−1 xylazine in PBS at a dose of 0.1-0.13 mL per 25 g of body weight, and pupils were dilated with 1% tropicamide. Contact lens electrodes were placed on the eyes, and a reference electrode was positioned between two ears, while ground electrode was placed on the tail. Scotopic ERGs were recorded for both eyes of each mouse using a UTAS E-3000 universal testing and ERG system (LKC Technologies).
To quantify the effect of the CRBP1 inhibitor on the recovery of visual sensitivity after a light stimulus, we measured full-field electroretinography (ERG) responses in mice. Prior to the illumination, the animals were either treated with DMSO (vehicle) or abn-CBD. Both drugs were administrated in a dose of 30 mg kg^−1. Scotopic ERG responses at varying light intensities were recorded 4 h after the exposure to a flash of light that photobleached ˜50% of the visual pigment. […] However, even in a relatively high dose used in this experiment, the inhibitor of CRBP1 had much smaller impact on the visual cycle without causing its blockage, as it was reported for retinylamine and emixustat.

A further data set addresses T2, CRBP3 (Homo sapiens, UniProt P82980).
T2 construct: thrombin cut site (residual residues after digestion) (C); 6x histidine tag (C, cleaved yes); made in house; host or cells: E. coli BL21 (DE3) (as for CRBP2)
T2 sequence (P82980 1-135): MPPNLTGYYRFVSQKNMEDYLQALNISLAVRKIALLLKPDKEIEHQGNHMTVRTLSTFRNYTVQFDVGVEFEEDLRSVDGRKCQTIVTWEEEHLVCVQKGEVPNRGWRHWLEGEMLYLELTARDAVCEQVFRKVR
Briefly: Crystal structure of CRBP3 in complex with abn-CBD. In kind it is binding. The settings on record: crystal structure PDB No. 6E5W. On the procedure:
The cDNA of human CRBP3 was purchased from Origene Technologies. To introduce a thrombin cut site at the C-terminus of the protein, the cDNA was amplified by PCR and subcloned into pET30b vector. The next steps of the expression and purification of CRBP3 were identical to the procedure described above for CRBP2.
Crystals of CRBP1 in complex abn-CBD and its derivatives (abn-CBDO or CBDO) were grown essentially as described by Silvaroli et al (ACS Chem Biol. 2019, 15; 14(3)). The apo protein at 3 mg mL-1 was preincubated with 300 μM of a ligand in 10 mM Tris-HCl buffer, pH 8.0, 150 mM NaCl for 15 min on ice. This sample (1 μL) was mixed in 1:1 ratio with a crystallization solution composed of 0.1 M BisTris, pH 5.5, and 25% poly(ethylene glycol) (PEG) 3350 (w/v). Crystals of CRBP3 with abn-CBD were obtained by preincubating apoprotein at 8 mg mL-1 with 300 μM of the ligand for 15 min and setting up crystallization drops by mixing 1 μL of the protein sample with 1 μL of 0.2 M sodium malonate, pH 5.0 and 20% PEG 3350 (w/v) solution. For CRBP4, the crystallization conditions included 0.2 M NaCl, 0.1 M BisTris, pH 6.5, and 25% PEG 3350 (w/v). Similar to the other CRBPs, CRBP4 (6 mg mL^−1) was preincubated with abn-CBD prior to the crystallization. All of the protein crystals were obtained by the sitting drop vapor diffusion method at RT. […]

cannabinoid receptor 1, sequence (P21554 whole entry, species assumed): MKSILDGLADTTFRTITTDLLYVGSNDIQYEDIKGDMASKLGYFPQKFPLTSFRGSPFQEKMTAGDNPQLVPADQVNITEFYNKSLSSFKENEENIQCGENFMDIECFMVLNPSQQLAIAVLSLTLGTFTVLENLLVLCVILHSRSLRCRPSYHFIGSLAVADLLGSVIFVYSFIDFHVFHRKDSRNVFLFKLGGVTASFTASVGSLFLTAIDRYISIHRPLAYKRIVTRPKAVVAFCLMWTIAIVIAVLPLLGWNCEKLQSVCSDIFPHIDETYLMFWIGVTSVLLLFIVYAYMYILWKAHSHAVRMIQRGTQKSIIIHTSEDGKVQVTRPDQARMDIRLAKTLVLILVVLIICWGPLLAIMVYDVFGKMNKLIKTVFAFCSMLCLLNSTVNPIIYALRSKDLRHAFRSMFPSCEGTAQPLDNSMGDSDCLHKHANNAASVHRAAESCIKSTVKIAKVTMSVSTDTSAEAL

Regarding `C=C(C)[C@@H]1CCC(C)=C[C@H]1c1c(O)cc(O)cc1CCCCC` [abn-CBD, 4-[(1R,6R)-3-Methyl-6-prop-1-en-2-ylcyclohex-2-en-1-yl]-5-pentylbenzene-1,3-diol], the HTS result on holo-CRBP1 is “unique hit; also recorded: single hit”. Besides, the “interaction with cannabinoid receptor 1” value at cannabinoid receptor 1 is listed as “does not interact”. In addition, the “recovery of a-wave and b-wave amplitudes (dark adaptation)” value in the data set on Balb/cJ mice is on record as “slower; also recorded: slight delay in the dark adaptation”. Moreover, the “binding to CRBP3” value at CRBP3 is “bind abn-CBD similarly to CRBP1”.

These data come from patent US20210228500A1, “CELLULAR RETINOID BINDING PROTEIN ANTAGONISTS AND USES THEREOF” (CASE WESTERN RESRVE UNIVERSITY, priority 2018, published 2021).
